Measurements as given in patent US20230094952A1, “Method for Culturing Hematopoietic Stem Cells” (Sumitomo Pharma Co., Ltd., priority 2019, published 2023).

Tested on: mouse long-term hematopoietic stem cells
Experiment: Reproducibility and concentration dependence test: 1-week culture of sorted Hoxb5-tri-mCherry mouse long-term hematopoietic stem cells, flow cytometry
Assay type: cell-based
Settings: day 7 of culture, n=2
Method: Mice with insertion of a nucleic acid sequence containing three copies of a gene encoding the fluorescent protein mCherry to the C terminus of the mouse endogenous HoxB5 gene (Hoxb5-tri-mCherry) were used (triple-mCherry Hoxb5 knock-in mice; Non Patent Literature 1). The mice were housed under environmental conditions such that the room temperature and the humidity were 20 to 26° C. and 40 to 70%, respectively, under light for 12 hours and under dark for 12 hours (illumination: 8:00 a.m. to 8:00 p.m.).
Bone marrow cells were collected from the tibia, femur, humerus, and pelvis in each side of each of the mice, and gathered in a mortar. A buffer obtained by adding thermally deactivated bovine serum (manufactured by Gibco) at a final concentration of 2% and EDTA at a final concentration of 2 mM to Ca^2+-free and Mg^2+-free PBS was added, and the resultant was broken with a pestle to obtain a cell population including hematopoietic stem cells.
First, the thus-obtained cell population including hematopoietic stem cells was passed through strainers (meshes) of 100 μm, 70 μm, and 40 μm. The cell population was stained with an APC-binding anti-c-Kit (2B8) and fractionated with anti-APC magnetic beads and an LS column (both manufactured by Miltenyi Biotec) to obtain a cell population enriched with hematopoietic stem cells and progenitor cells.
Subsequently, cells being c-Kit-positive were stained with antibodies for the following cell surface markers.
Staining with the antibodies was performed at 4° C., and the cells were incubated for 30 minutes. For staining with the CD34 antibody, the cells were incubated for 90 minutes. Dead cell staining was performed with SYTOX Red Dead Cell Stain (manufactured by Life Technologies) in accordance with a method recommended by the manufacturer.
Flow cytometry analysis and cell classification (cell sorting) were performed with a FACS Aria II cell sorter (manufactured by BD Biosciences), wherein Lineage-negative, c-Kit-positive, Sca-1-positive, Flk2-negative, CD34-negative or weakly CD34-positive, CD150-positive, and mCherry-positive fractions were regarded as long-term hematopoietic stem cells, and analysis was performed with the software FlowJo (manufactured by Tree Star, Inc.).
The cells after classification were seeded in a 96-well plate. A cell culture medium was prepared by adding Stem Cell Factor (SCF, manufactured by PeproTech, Inc.) and Thrombopoietin (TPO, manufactured by PeproTech, Inc.) to StemSpan SFEM culture medium (manufactured by […] Technologies Inc.) and added in advance to a cell culture 96-well plate (manufactured by BD Biosciences) at 100 μL/well, and the cells sorted with the FACS Aria II cell sorter (BD Biosciences) were then seeded at 10 cells/well.
[…] Thereafter, the cells were cultured in a CO2 incubator under conditions of 37° C. and 5% CO2 for 1 week.
After culture, the cells were stained with the antibodies for the surface markers c-Kit and Sca-1, Ter-119, B220, CD3, CD4, CD8a, Gr-1, and CD11b, and the ratio and post-growth cell count of a KLS fraction (c-Kit^+, Lin^−, Sca-1^+) or an mCherry-positive fraction given with use of a FACS Aria II cell sorter were analyzed by using FlowJo (BD Biosciences). The mCherry-positive fraction is a cell fraction expressing the Hoxb5 gene, and the KLS fraction is a cell fraction being c-Kit-positive, Lin-negative, and Sca-1-positive, and includes hematopoietic stem cells and multipotent progenitor cells as main components. […]

Compound | KLS-positive rate (Table 4, compound 0.1 μM) | Viable cell count (Table 4, compound 0.1 μM) | mCherry-positive rate (Table 4, compound 0.1 μM) | KLS-positive rate (Table 4, compound 0.3 μM) | Viable cell count (Table 4, compound 0.3 μM) | mCherry-positive rate (Table 4, compound 0.3 μM) | KLS-positive rate (Table 4, compound 1 μM) | Viable cell count (Table 4, compound 1 μM) | mCherry-positive rate (Table 4, compound 1 μM) | KLS-positive rate (Table 4, compound 3 μM) | Viable cell count (Table 4, compound 3 μM) | mCherry-positive rate (Table 4, compound 3 μM) | KLS-positive rate (Table 4, compound 10 μM) | Viable cell count (Table 4, compound 10 μM) | mCherry-positive rate (Table 4, compound 10 μM) | also measured
C[C@H]1[C@H](Oc2ccccc2)O[C@@H]2O[C@@]3(C)CC[C@H]4[C@H](C)CC[C@@H]1[C@@]24OO3 [Example 1-25, (3R,5aS,6R,8aS,9R,10R,12R,12aR)-3,6,9-trimethyl-10-phenoxydecahydro-12H-3,12-epoxypyrano[4,3-j][1,2]benzodioxepine] | 40.0% | 181.5 cell | 52.3% | 0.0% | 0.5 cell | 0.0% | 0.0% | 0.0 cell | 0.0% | 50.0% | 0.5 cell | 50.0% | 0.0% | 0.0 cell | 0.0% | 
C[C@H]1[C@H](S(C)(=O)=O)O[C@@H]2O[C@@]3(C)CC[C@H]4[C@H](C)CC[C@@H]1[C@@]24OO3 [Example 1-5, (3R,5aS,6R,8aS,9R,10S,12S,12aR)-10-(Methanesulfonyl)-3,6,9-trimethyldecahydro-12H-3,12-epoxypyrano[4,3-j][1,2]benzodioxepine] | 18.2% | 443.5 cell | 11.5% | 41.7% | 221.5 cell | 8.5% | 20.0% | 308.0 cell | 4.5% | 30.8% | 184.0 cell | 41.5% | 0.0% | 1.5 cell | 0.0% | 
CO[C@@H]1O[C@@H]2O[C@@]3(C)CC[C@H]4[C@H](C)CC[C@@H]([C@H]1C)[C@@]24OO3 [Example 1-35, (3R,5aS,6R,8aS,9R,10R,12R,12aR)-10-Methoxy-3,6,9-trimethyldecahydro-12H-3,12-epoxypyrano[4,3-j][1,2]benzodioxepine] | 13.8% | 763.5 cell | 3.0% | 19.9% | 544.5 cell | 48.5% | 17.9% | 554.0 cell | 74.0% | 48.7% | 104.5 cell | 92.2% | 46.7% | 121.5 cell | 99.6% | 
C[C@H]1[C@@H](OC2CCCCC2)O[C@@H]2O[C@@]3(C)CC[C@H]4[C@H](C)CC[C@@H]1[C@@]24OO3 [Example 1-20, (3R,5aS,6R,8aS,9R,10S,12R,12aR)-10-(cyclohexyloxy)-3,6,9-trimethyldecahydro-12H-3,12-epoxypyrano[4,3-j][1,2]benzodioxepine] | 0.0% | 0.0 cell | 0.0% | 0.0% | 0.0 cell | 0.0% | 0.0% | 1.0 cell | 0.0% | 0.0% | 0.5 cell | 50.0% | 0.0% | 0.5 cell | 50.0% | 
C[C@H]1[C@H](OC(=O)CCC(=O)O)O[C@@H]2O[C@@]3(C)CC[C@H]4[C@H](C)CC[C@@H]1[C@@]24OO3 [Example 1-32, artesunate, reference compound] | 21.0% | 597.5 cell | 9.4% | 12.4% | 355.5 cell | 6.0% | 90.6% | 9.0 cell | 100.0% | 21.2% |  | 53.3% | 0.0% | 1.0 cell | 25.0% | KLS-positive rate (Table 3, compound 0.1 μM): 36.3%; Viable cell count (Table 3, compound 0.1 μM): 1065.5 cell; mCherry-positive rate (Table 3, compound 0.1 μM): 23.59%; KLS-positive rate (Table 3, compound 0.3 μM): 46.4%; Viable cell count (Table 3, compound 0.3 μM): 540 cell; mCherry-positive rate (Table 3, compound 0.3 μM): 35.1%; KLS-positive rate (Table 3, compound 1 μM): 45.3%; Viable cell count (Table 3, compound 1 μM): 266 cell; mCherry-positive rate (Table 3, compound 1 μM): 91.2%; KLS-positive rate (Table 3, compound 3 μM): 0%; Viable cell count (Table 3, compound 3 μM): 0.5 cell; mCherry-positive rate (Table 3, compound 3 μM): 50%; KLS-positive rate (Table 3, compound 10 μM): 0%; Viable cell count (Table 3, compound 10 μM): 0.5 cell; mCherry-positive rate (Table 3, compound 10 μM): 0%
CC(C)O[C@H]1O[C@@H]2O[C@@]3(C)CC[C@H]4[C@H](C)CC[C@@H]([C@H]1C)[C@@]24OO3 [Example 1-19, (3R,5aS,6R,8aS,9R,10S,12R,12aR)-3,6,9-Trimethyl-10-[(propan-2-yl)oxy]decahydro-12H-3,12-epoxypyrano[4,3-j][1,2]benzodioxepine] | 9.5% | 469.0 cell | 56.3% | 41.7% | 151.0 cell | 96.2% | 4.2% | 6.0 cell | 50.0% | 0.0% | 0.0 cell | 0.0% | 0.0% | 0.5 cell | 50.0% | 
C[C@H]1[C@H](N(C)C)O[C@@H]2O[C@@]3(C)CC[C@H]4[C@H](C)CC[C@@H]1[C@@]24OO3 [Example 1-12, (3R,5aS,6R,8aS,9R,10R,12R,12aR)—N,N,3,6,9-Pentamethyldecahydro-12H-3,12-epoxypyrano[4,3-j][1,2]benzodioxepin-10-amine] | 27.2% | 450.5 cell | 7.3% | 15.8% | 262.0 cell | 15.2% | 19.3% | 431.5 cell | 8.2% | 14.4% | 217.0 cell | 19.4% | 36.6% | 234.5 cell | 12.1% | 
C[C@H]1[C@H](NS(C)(=O)=O)O[C@@H]2O[C@@]3(C)CC[C@H]4[C@H](C)CC[C@@H]1[C@@]24OO3 [Example 1-11, N-[(3R,5aS,6R,8aS,9R,10R,12R,12aR)-3,6,9-Trimethyldecahydro-12H-3,12-epoxypyrano[4,3-j][1,2]benzodioxepin-10-yl]methanesulfonamide] | 13.2% | 452.5 cell | 14.3% | 17.6% | 267.0 cell | 29.2% | 26.0% | 196.0 cell | 60.4% | 32.4% | 31.0 cell | 86.2% | 100.0% | 1.5 cell | 100.0% | 
